Measured values reported in ChEMBL document CHEMBL5385896, “Discovery of PIM-1 kinase inhibitors based on the 2,5-disubstituted 1,3,4-oxadiazole scaffold against prostate cancer: Design, synthesis, in vitro and in vivo cytotoxicity investigation” (Eur J Med Chem, 2023).
Calls of active or inactive are those of the source. No cut-off for these calls is given here.

Tests used:
PC-3 [1] = experiment: cells; assay type: functional, cell-based; conditions: Homo sapiens, PC-3, 48 h
Description: Cytotoxicity against human PC-3 cells assessed as inhibition of cell growth incubated for 48 hrs by MTT assay

HepG2 = experiment: Cytotoxicity against human HepG2 cells assessed as inhibition of cell growth incubated for 48 hrs by MTT assay; assay type: functional, cell-based; conditions: HepG2, 48 h
MCF7 = experiment: cells; assay type: functional, cell-based; conditions: Homo sapiens, MCF7, 48 h
Description: Cytotoxicity against human MCF7 cells assessed as inhibition of cell growth incubated for 48 hrs by MTT assay

[2] = target: Serine/threonine-protein kinase pim-1 (Homo sapiens, UniProt P11309); experiment: Inhibition of PIM-1 (unknown origin)
Chain of Serine/threonine-protein kinase pim-1 (P11309 whole entry): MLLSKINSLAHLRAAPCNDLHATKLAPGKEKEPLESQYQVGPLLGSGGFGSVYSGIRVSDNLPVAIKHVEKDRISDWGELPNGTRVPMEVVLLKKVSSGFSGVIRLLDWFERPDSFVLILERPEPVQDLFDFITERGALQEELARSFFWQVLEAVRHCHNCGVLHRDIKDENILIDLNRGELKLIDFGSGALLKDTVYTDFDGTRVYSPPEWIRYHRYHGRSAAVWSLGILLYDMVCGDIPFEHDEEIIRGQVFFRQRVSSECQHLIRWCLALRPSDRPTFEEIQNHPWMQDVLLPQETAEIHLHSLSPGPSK

PC-3 [3] = experiment: Induction of apoptosis in human PC-3 cells assessed as nuclear condensation at 0.017 uM incubated for 48 hrs by DAPI-staining based confocal microscopic analysis; assay type: functional, cell-based
PC-3 [4] = experiment: Induction of apoptosis in human PC-3 cells assessed as fold increase in apoptosis at 0.017 uM incubated for 48 hrs by DAPI-staining based confocal microscopic analysis; assay type: functional
PC-3 [5] = experiment: Induction of apoptosis in human PC-3 cells assessed as early apoptotic cells at 0.017 uM incubated for 48 hrs by Annexin V-FITC and PI staining based flow cytometric analysis (reference value: 0.27 %); assay type: functional
PC-3 [6] = experiment: Induction of apoptosis in human PC-3 cells assessed as late apoptotic cells at 0.017 uM incubated for 48 hrs by Annexin V-FITC and PI staining based flow cytometric analysis (reference value: 0.18 %); assay type: functional
PC-3 [7] = experiment: Induction of apoptosis in human PC-3 cells assessed as necrotic cells at 0.017 uM incubated for 48 hrs by Annexin V-FITC and PI staining based flow cytometric analysis (reference value: 0.77 %); assay type: functional
PC-3 [8] = experiment: Induction of apoptosis in human PC-3 cells at 0.017 uM incubated for 48 hrs by Annexin V-FITC and PI staining based flow cytometric analysis relative to control; assay type: functional
PC-3 [9] = experiment: Induction of cell cycle arrest in human PC-3 cells assessed as accumulation of cells at PreG1-phase at 0.017 uM incubated for 48 hrs by Annexin V-FITC and PI staining based flow cytometric analysis (reference value: 1.37 %); assay type: functional
PC-3 [10] = experiment: Induction of cell cycle arrest in human PC-3 cells assessed as accumulation of cells at G1-phase at 0.017 uM incubated for 48 hrs by Annexin V-FITC and PI staining based flow cytometric analysis (reference value: 44.73 %); assay type: functional
PC-3 [11] = experiment: Induction of cell cycle arrest in human PC-3 cells assessed as accumulation of cells at S-phase at 0.017 uM incubated for 48 hrs by Annexin V-FITC and PI staining based flow cytometric analysis (reference value: 42.08 %); assay type: functional
PC-3 [12] = experiment: Induction of cell cycle arrest in human PC-3 cells assessed as accumulation of cells at G2/M-phase at 0.017 uM incubated for 48 hrs by Annexin V-FITC and PI staining based flow cytometric analysis (reference value: 13.19 %); assay type: functional
PC-3 [13] = experiment: Induction of apoptosis in human PC-3 cells assessed as fold change in p53 gene expression at 0.017 uM incubated for 48 hrs by RT-PCR analysis; assay type: functional
PC-3 [14] = experiment: Induction of apoptosis in human PC-3 cells assessed as fold change in PUMA gene expression at 0.017 uM incubated for 48 hrs by RT-PCR analysis; assay type: functional
PC-3 [15] = experiment: Induction of apoptosis in human PC-3 cells assessed as fold change in caspase-3 gene expression at 0.017 uM incubated for 48 hrs by RT-PCR analysis; assay type: functional
PC-3 [16] = experiment: Induction of apoptosis in human PC-3 cells assessed as fold change in caspase-8 gene expression at 0.017 uM incubated for 48 hrs by RT-PCR analysis; assay type: functional
PC-3 [17] = experiment: Induction of apoptosis in human PC-3 cells assessed as fold change in caspase-9 gene expression at 0.017 uM incubated for 48 hrs by RT-PCR analysis; assay type: functional
PC-3 [18] = experiment: Induction of apoptosis in human PC-3 cells assessed as fold decrease in BCL-2 gene expression at 0.017 uM incubated for 48 hrs by RT-PCR analysis; assay type: functional
PC-3 [19] = experiment: Induction of apoptosis in human PC-3 cells assessed as fold decrease in JAK2 gene expression at 0.017 uM incubated for 48 hrs by RT-PCR analysis; assay type: functional
PC-3 [20] = experiment: Induction of apoptosis in human PC-3 cells assessed as fold decrease in STAT3 gene expression at 0.017 uM incubated for 48 hrs by RT-PCR analysis; assay type: functional
[21] = Antioxidant activity assessed as DPPH radical scavenging activity incubated for 30 mins; assay type: functional
[22] = Antioxidant activity assessed as DPPH radical scavenging activity at 100 uM incubated for 30 mins relative to control; assay type: functional
PC-3 [23] = experiment: Antitumor activity against human PC-3 cells xenografted in mouse assessed as decrease in body weight loss at 4.2 mg/kg,ip administration; assay type: functional, organism-based
PC-3 [24] = experiment: Antitumor activity against human PC-3 cells xenografted in mouse assessed as decrease in tumor mass at 4.2 mg/kg,ip administration; assay type: functional
PC-3 [25] = experiment: Antitumor activity against human PC-3 cells xenografted in mouse assessed as decrease in tumor volume at 4.2 mg/kg,ip administration; assay type: functional
PC-3 [26] = experiment: Antitumor activity against human PC-3 cells xenografted in mouse assessed as tumor growth inhibition at 4.2 mg/kg,ip administration; assay type: functional; conditions: read-out: TGI
PC-3 [27] = experiment: Antitumor activity against human PC-3 cells xenografted in mouse assessed as increase in hemoglobin level at 5.2 mg/kg,ip administration (reference value: 2.94 +/- 0.54 g/dl); assay type: functional
PC-3 [28] = experiment: Antitumor activity against human PC-3 cells xenografted in mouse assessed as increase in RBC count at 5.2 mg/kg,ip administration (reference value: 2.34 +/- 0.57 10^6/microL); assay type: functional
PC-3 [29] = experiment: Antitumor activity against human PC-3 cells xenografted in mouse assessed as decrease in WBC count at 5.2 mg/kg,ip administration (reference value: 4.98 +/- 0.87 10^3/microL); assay type: functional
PC-3 [30] = experiment: Antitumor activity against human PC-3 cells xenografted in mouse assessed as decrease in ALT level at 5.2 mg/kg,ip administration (reference value: 81.25 +/- 1.69 I/U); assay type: functional
PC-3 [31] = experiment: Antitumor activity against human PC-3 cells xenografted in mouse assessed as decrease in AST level at 5.2 mg/kg,ip administration (reference value: 85.38 +/- 1.59 I/U); assay type: functional
PC-3 [32] = experiment: Antitumor activity against human PC-3 cells xenografted in mouse assessed as increase in total protein level at 5.2 mg/kg,ip administration (reference value: 4.01 +/- 0.27 g/dl); assay type: functional
PC-3 [33] = experiment: Antitumor activity against human PC-3 cells xenografted in mouse assessed as decrease in liver damage at 5.2 mg/kg,ip administration by; assay type: functional, organism-based
PC-3 [34] = experiment: Antitumor activity against human PC-3 cells xenografted in mouse assessed as hepatocyte hydropic degeneration at 5.2 mg/kg,ip administration by; assay type: functional, organism-based
PC-3 [35] = experiment: Antitumor activity against human PC-3 cells xenografted in mouse assessed as hepatocyte balloon degeneration at 5.2 mg/kg,ip administration by; assay type: functional, organism-based
[36] = Toxicity in mouse xenografted with human PC-3 cells assessed as lethal dose at ip administration; assay type: organism-based; conditions: in vivo
in vitro = conditions: human, RWPE2 cells
Description: Cytotoxicity against human RWPE2 cells assessed as inhibition of cell growth incubated for 48 hrs by MTT assay

PC-3 [37] = experiment: Antitumor activity against human PC-3 cells xenografted in mouse assessed as decrease in tumor mass at 5.2 mg/kg,ip administration; assay type: functional; parameters: scale not given: the % may be the effect or the level left
PC-3 [38] = experiment: Antitumor activity against human PC-3 cells xenografted in mouse assessed as decrease in tumor volume at 5.2 mg/kg,ip administration; assay type: functional

Fc1ccc(-c2nnc(-c3ccnc(-c4ccccc4)c3)o2)cc1
IC50 (PC-3 [1]): 2.31 µM | IC50 (HepG2): ≥ 50 µM | IC50 (MCF7): 18.9 µM

COc1ccc(-c2nnc(-c3ccnc(-c4ccccc4)c3)o2)c(F)c1
IC50 (PC-3 [1]): 2.01 µM | IC50 (HepG2): 13.7 µM | IC50 (MCF7): 20.5 µM

COc1cccc(-c2nnc(-c3ccnc(-c4ccccc4)c3)o2)c1
IC50 (PC-3 [1]): 3.21 µM | IC50 (HepG2): ≥ 50 µM | IC50 (MCF7): 0.75 µM

COc1cccc(-c2nnc(-c3ccnc(-c4ccc(C(F)(F)F)cc4)c3)o2)c1
IC50 (PC-3 [1]): 13.2 µM | IC50 (HepG2): ≥ 50 µM | IC50 (MCF7): 12.4 µM

Clc1cccc(-c2nnc(-c3ccnc(-c4ccccc4)c3)o2)c1
IC50 (PC-3 [1]): 0.016 µM | IC50 (HepG2): 0.13 µM | IC50 (MCF7): 5.37 µM | IC50 [2]: 17 µM | Activity (PC-3 [3]): Active | fold change (FC) (PC-3 [4]): 37.2 | Activity (PC-3 [5]): 2.09% | Activity (PC-3 [6]): 17.35% | Activity (PC-3 [7]): 11.9% | Activity (PC-3 [8]): 19.44% | Activity (PC-3 [9]): 26.44% | Activity (PC-3 [10]): 47.36% | Activity (PC-3 [11]): 45.18% | Activity (PC-3 [12]): 7.46% | fold change (FC) (PC-3 [13]): 6.58 | fold change (FC) (PC-3 [14]): 3.85 | fold change (FC) (PC-3 [15]): 6.98 | fold change (FC) (PC-3 [16]): 3.25 | fold change (FC) (PC-3 [17]): 8.67 | fold change (FC) (PC-3 [18]): 0.45 | fold change (FC) (PC-3 [19]): 0.52 | fold change (FC) (PC-3 [20]): 0.48 | Activity [21]: Dose-Dependent Effect | Activity [22]: 94% | Activity (PC-3 [23]): Active | Activity (PC-3 [24]): 89.4 mg | Activity (PC-3 [25]): 34.1 mm3 | inhibition in vivo at 4.2 mg/kg (PC-3 [26]): 64.2% | Activity (PC-3 [27]): 6.89 g/dL | Activity (PC-3 [28]): 4.02 10^6 /uL | Activity (PC-3 [29]): 2.87 10^3 /uL | Activity (PC-3 [30]): 49.8 U/L | Activity (PC-3 [31]): 48.9 U/L | Activity (PC-3 [32]): 5.74 g/dL | Activity (PC-3 [33]): Active | Activity (PC-3 [34]): Active | Activity (PC-3 [35]): Active | LD50 [36]: 4.2 mg/kg | IC50 at 48 h (in vitro): 35.4 µM

Cc1c(C)c2c(c(C)c1O)CCC(C)(C(=O)O)O2 (configuration not stated)
Activity [22]: 96%

COc1ccc(-c2nnc(-c3ccnc(-c4ccccc4)c3)o2)cc1
IC50 (PC-3 [1]): 0.56 µM | IC50 (HepG2): 7.06 µM | IC50 (MCF7): 9.7 µM | Activity [21]: Dose-Dependent Effect | IC50 at 48 h (in vitro): ≥ 50 µM

COc1ccc(-c2nnc(-c3ccnc(-c4ccc(C(F)(F)F)cc4)c3)o2)cc1
IC50 (PC-3 [1]): 9.31 µM | IC50 (HepG2): 3.25 µM | IC50 (MCF7): 25.7 µM

Fc1ccc(-c2nnc(-c3ccnc(-c4ccc(C(F)(F)F)cc4)c3)o2)cc1
IC50 (PC-3 [1]): 0.82 µM | IC50 (HepG2): 7.21 µM | IC50 (MCF7): 13.7 µM | Activity [21]: Dose-Dependent Effect | IC50 at 48 h (in vitro): 45.7 µM

CN[C@@H]1C[C@H]2O[C@@](C)([C@@H]1OC)n1c3ccccc3c3c4c(c5c6ccccc6n2c5c31)C(=O)NC4 [STAUROSPORINE]
IC50 (HepG2): 5.07 µM | Activity (PC-3 [37]): 20% | Activity (PC-3 [38]): 52.9 mm3 | Activity (PC-3 [27]): 6.52 g/dL | Activity (PC-3 [28]): 4.95 10^6 /uL | Activity (PC-3 [29]): 2.81 10^3 /uL | Activity (PC-3 [30]): 50.4 U/L | Activity (PC-3 [31]): 47.38 U/L | Activity (PC-3 [32]): 5.39 g/dL

c1ccc(-c2cc(-c3nnc(-c4ccccc4)o3)ccn2)cc1
IC50 (PC-3 [1]): 12.7 µM | IC50 (HepG2): 13.9 µM | IC50 (MCF7): 8.36 µM | IC50 at 48 h (in vitro): 42.6 µM

Fc1cccc(-c2nnc(-c3ccnc(-c4ccccc4)c3)o2)c1
IC50 (PC-3 [1]): 6.21 µM | IC50 (HepG2): 4.31 µM | IC50 (MCF7): 3.8 µM

FC(F)(F)c1ccc(-c2cc(-c3nnc(-c4cccc(Cl)c4)o3)ccn2)cc1
IC50 (PC-3 [1]): ≥ 50 µM | IC50 (HepG2): 3.24 µM | IC50 (MCF7): 10 µM

FC(F)(F)c1ccc(-c2cc(-c3nnc(-c4ccccc4)o3)ccn2)cc1
IC50 (PC-3 [1]): ≥ 50 µM | IC50 (HepG2): 4.03 µM | IC50 (MCF7): 9.66 µM

Fc1cccc(-c2nnc(-c3ccnc(-c4ccc(C(F)(F)F)cc4)c3)o2)c1
IC50 (PC-3 [1]): 0.76 µM | IC50 (HepG2): 6.02 µM | IC50 (MCF7): 70.1 µM | Activity [21]: Dose-Dependent Effect | IC50 at 48 h (in vitro): 31.9 µM
